In patent US7238813B2, “Chemical compounds” (Smithkline Beecham Corporation, priority 2000, dated 2007):
Structures can show the parent of a compound that is named as a salt. One block for each compound: values may come before it.

Experiments:
[1] = target: T1, GST-TIE2 (intracellular domains of human TIE2) (Homo sapiens, UniProt Q02763); test: TIE-2 enzyme assay (TIE2-E), LANCE method; format: biochemical; settings: 80 uM ATP
T1 construct: made in house
Method in brief: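 Baculovirus GST-TIE2 (human intracellular domain, aa 762–1104) preactivated 30 min at RT with 2 mM ATP, then reacted 30 min at RT with 1 μM D1-15 peptide, 80 uM ATP, 10 mM MgCl2, pH 7.4, 2.4% DMSO. EDTA-stopped; LANCE Eu-anti-pTyr/streptavidin-APC read-out. IC50 by nonlinear regression, reported as pIC50.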

[2] = target: T2, TIE2 intracellular domain/c-fms extracellular domain (TIE2/c-fms) chimeric protein expressing mouse 3T3 cells (Homo sapiens, UniProt Q02763); test: TIE-2 autophosphorylation assay (TIE2-C), ELISA; format: cell-based; settings: TIE2/c-fms 3T3 cells, MCSF activation
T2 construct: a TIE2 intracellular domain/c-fms extracellular domain (TIE2/c-fms) chimeric protein; expressed in transfected cells; host or cells: mouse 3T3 cells
T2 sequence (Q02763 770-1124 limits assumed, change not shown): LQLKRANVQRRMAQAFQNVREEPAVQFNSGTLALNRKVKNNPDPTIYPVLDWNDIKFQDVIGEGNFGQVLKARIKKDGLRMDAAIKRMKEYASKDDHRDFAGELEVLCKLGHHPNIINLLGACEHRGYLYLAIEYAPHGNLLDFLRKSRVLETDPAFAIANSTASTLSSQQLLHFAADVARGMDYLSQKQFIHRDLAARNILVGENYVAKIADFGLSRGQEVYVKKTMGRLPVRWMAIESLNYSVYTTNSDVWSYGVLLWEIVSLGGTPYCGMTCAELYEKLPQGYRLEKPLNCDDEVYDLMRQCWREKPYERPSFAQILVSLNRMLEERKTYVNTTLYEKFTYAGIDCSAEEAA
Protocol: TIE-2 Autophosphorylation Assay (TIE2-C)
The TIE-2 autophosphorylation assay used an ELISA method and a TIE2 intracellular domain/c-fms extracellular domain (TIE2/c-fms) chimeric protein expressing mouse 3T3 cells. This assay measured the autophosphorylation level of TIE2 protein expressed in cells. The cells were cultured in high glucose DMEM (Sigma) containing 10% serum at 37° C. in a humidified 10% CO2, 90% air incubator. The test compound (diluted from a 10 mM stock in DMSO, final DMSO concentration was 0.1%) was incubated with TIE2/c-fms expressing cells for 1 hr in serum free DMEM in 96 well plates followed by the activation of TIE2/c-fms receptor using c-fms ligand, MCSF (macrophage colony stimulating factor). The culture media was removed by aspiration and the cells incubated for at least 30 mins on ice with lysis buffer containing 137 mM NaCl, 2 mM EDTA, 10% glycerol, […] sodium ortho vanadate and complete protease inhibitor cocktail (Roche) in 20 mM Tris-HCl (pH8.0). The cell extracts were transferred into Rat anti-c-fms antibody coated 96 well plates and incubated for 12 hrs at 4° C. The extracts were removed by aspiration and the plate was incubated with biotinylated anti-phosphotyrosine antibody, PT66 (Sigma) and then with HRP (Horseradish Peroxidase)-labeled streptavidin (PIERCE). The optical density at 450 nm derived from HRP catalyzed TMB was measured with an ARVO multilabel counter. (Wallac Berthold Japan). The percent inhibition of activity was calculated relative to blank control wells. The concentration of test compound that inhibits 50% of activity (IC50) was interpolated using nonlinear regression (Levernberg-Marquardt) and the equation, y=Vmax (1−x/(K+x))+Y2, where “K” was equal to the IC50. The IC50 values were converted to pIC50 values, i.e., −log IC50 in Molar concentration.

[3] = tested on: Human umbilical cord endothelial cells (HUVEC); test: VEGF-driven cellular proliferation assay: BrdU incorporation assay (VEGF-C); format: cell-based; design: key to VEGF-C: + = pIC50 of 5.0–6.0; ++ = pIC50 of 6.0–7.0; +++ = pIC50 of > 7.0; − = a negative or inconclusive result; settings: for IC50: Homo sapiens
Protocol: VFGF-driven Cellular Proliferation Assay: BrdU Incorporation Assay (VEGF-C)
Human umbilical cord endothelial cells (HUVEC, Clonetics, CC2519) were passaged in Type I collagen-coated 100-mm petridishes in EGM-MV medium (Clonetics, CC3125) at 37° C. in a humidified 5% CO2, 95% air incubator. (HUVEC passaged more than 6 times in vitro were discarded and not subjected to assaying.) The cells were harvested using trypsin/EDTA, counted using a haemocytometer and plated at 5000 cells/well in a Type I-collagen coated 96-well plate (Becton Dickinson, 354407) in M199 medium (Gibco BRL, 12340-030) containing 5% FBS (Hyclone, A 1115-L) and gentamicin (at 50 μg/ml, Gibco BRL). After incubation overnight at 37° C., the media were replaced with 100 μl of M199 serum-free medium containing compounds at various concentrations with 0.6% DMSO and gentamicin. The compounds were diluted in serum-free M199 medium from 10 mM stock solutions prepared in 100% DMSO. After a 30 min incubation at 37° C., the cells were fed with 100 μl of serum-free M199 medium containing gentamicin, 0.2% culture-grade bovine serum albumin (BSA, Sigma A1993) and 20 ng/ml of VEGF (R&D systems, 293-VE) or 0.6 ng/ml of basic FGF (R&D systems, 233-FB), and cultured at 37° C. for another 24 h. The cells were pulsed with bromodeoxyuridine (BrdU at 10 μM in serum-free M199) at 37° C. for an additional 24 h. The incorporation of BrdU into the proliferating HUVEC were analyzed using BrdU Cell Proliferation ELISA (Roche Molecular Biochemicals, 1647229) according to the manufacturer's protocols. The optical density at 450 nm was measured with a multilabel counter (ARVO SX, Wallac). The percent inhibition of cell growth was calculated relative to blank control wells. The concentration of test compound that inhibits 50% of cell growth (IC50) was interpolated using nonlinear regression (Levernberg-Marquardt) and the equation, y=Vmax (1−x/(K+x))+Y2, where “K” was equal to the IC50. The IC50, values were converted to pIC50 values, i.e., −log IC50 in Molar concentration.

[4] = target: T3, GST-VEGFR2 (Homo sapiens, UniProt P35968); test: VEGF-R2 enzyme assay (VEGF-E), LANCE method; format: biochemical; settings: 75 μM ATP
T3 construct: GST-VEGFR2, baculovirus expressed recombinant constructs of the intracellular domains of human TIE2 tagged by GST; made in house
T3 sequence (P35968 786-1356 limits assumed): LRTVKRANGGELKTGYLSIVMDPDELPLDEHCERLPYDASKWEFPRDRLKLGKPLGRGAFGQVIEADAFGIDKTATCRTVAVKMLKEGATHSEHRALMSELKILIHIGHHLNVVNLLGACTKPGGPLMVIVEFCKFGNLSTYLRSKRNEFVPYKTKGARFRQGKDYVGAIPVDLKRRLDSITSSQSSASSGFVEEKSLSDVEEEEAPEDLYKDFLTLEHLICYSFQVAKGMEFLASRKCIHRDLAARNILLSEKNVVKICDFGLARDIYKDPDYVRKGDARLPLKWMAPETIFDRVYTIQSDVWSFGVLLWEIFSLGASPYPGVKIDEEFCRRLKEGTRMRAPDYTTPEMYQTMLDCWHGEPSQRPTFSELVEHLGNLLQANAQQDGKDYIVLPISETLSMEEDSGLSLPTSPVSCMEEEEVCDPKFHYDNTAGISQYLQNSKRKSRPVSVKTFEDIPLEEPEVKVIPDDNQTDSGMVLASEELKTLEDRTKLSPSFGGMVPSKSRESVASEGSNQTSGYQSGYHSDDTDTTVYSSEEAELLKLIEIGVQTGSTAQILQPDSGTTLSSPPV

T1 sequence (Q02763 762-1104): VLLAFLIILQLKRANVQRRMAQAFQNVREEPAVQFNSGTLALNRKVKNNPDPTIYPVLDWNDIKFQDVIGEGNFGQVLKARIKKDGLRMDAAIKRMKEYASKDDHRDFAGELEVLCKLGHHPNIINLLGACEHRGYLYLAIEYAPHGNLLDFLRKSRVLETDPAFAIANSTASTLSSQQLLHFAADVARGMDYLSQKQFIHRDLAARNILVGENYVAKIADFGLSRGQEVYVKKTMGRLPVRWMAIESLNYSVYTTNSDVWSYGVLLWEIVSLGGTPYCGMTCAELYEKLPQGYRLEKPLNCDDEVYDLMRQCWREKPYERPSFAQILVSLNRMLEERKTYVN

SMILES: COC(=O)Nc1nc2ccc(Oc3ccc(NC(=O)Nc4cc(Cl)ccc4Cl)cc3)nc2[nH]1.Cl [Example 74, Methyl N-(5-(4-((2,5-dichlorophenyl)aminocarbonylamino)phenoxy)-3,4-diaza-1H-indole-2-yl)carbamate dihydrochloride]
IC50 [1]: < 100 nM
IC50 [2]: < 100 nM
VEGF-C [3]: −
IC50 [4]: < 100 nM

SMILES: O=C(Nc1ccc(Oc2ccc3nc(NC(=O)c4cccnc4)[nH]c3c2)cc1)Nc1cc(C(F)(F)F)ccc1F [Example 93, N-(5-(4-((2-Fluoro-5-(trifluoromethyl)phenyl)aminocarbonylamino)phenoxy)-1H-benzimidazol-2-yl)-3-pyridinecarboxamide]
IC50 [1]: < 100 nM
IC50 [2]: < 100 nM
IC50 [3]: 1000 to 10000 nM
IC50 [4]: < 100 nM

SMILES: O=C(Nc1ccc(Oc2ccc3[nH]c(NC(=O)OCc4ccccc4)nc3c2)cc1)Nc1cc(C(F)(F)F)ccc1F [Example 81, Benzyl N-(5-(4-((2-fluoro-5-(trifluoromethyl)phenyl)aminocarbonylamino)phenoxy)-1H-benzimidazol-2-yl)carbamate]
IC50 [1]: < 100 nM
IC50 [2]: < 100 nM
VEGF-C [3]: −
IC50 [4]: < 100 nM

SMILES: O=C1CCn2c(nc3ccc(Oc4ccc(NC(=O)Nc5cc(C(F)(F)F)ccc5F)cc4)nc32)N1 [Example 77]
IC50 [1]: < 100 nM
IC50 [2]: < 100 nM
IC50 [3]: 100 to 1000 nM
IC50 [4]: < 100 nM

SMILES: COC(=O)Nc1nc2cc(Oc3ccc(NC(=O)Nc4cc([N+](=O)[O-])ccc4C)cc3)ccc2[nH]1 [Example 47, Methyl N-(5-(4-((2-methyl-5-nitrophenyl)aminocarbonylamino)phenoxy)-1H-benzimidazol-2-yl)carbamate]
IC50 [1]: < 100 nM
IC50 [2]: < 100 nM
VEGF-C [3]: −
IC50 [4]: < 100 nM

SMILES: CC(C)CCC(=O)Nc1nc2cc(Oc3ccc(NC(=O)Nc4cc(C(F)(F)F)ccc4F)cc3)ccc2[nH]1 [Example 28, N-(5-(4-((2-Fluoro-5-(trifluoromethyl)phenyl)aminocarbonylamino)phenoxy)-1H-benzimidazol-2-yl)-4-methylpentamide]
IC50 [1]: < 100 nM
IC50 [2]: < 100 nM
IC50 [3]: 100 to 1000 nM
IC50 [4]: < 100 nM

SMILES: CN(C)CCOC(=O)Nc1nc2cc(Oc3ccc(NC(=O)Nc4cc(C(F)(F)F)ccc4F)cc3)ccc2[nH]1 [Example 80, 2-(Dimethylamino)ethyl N-(5-(4-((2-fluoro-5-(trifluoromethyl)phenyl)aminocarbonylamino)phenoxy)-1H-benzimidazol-2-yl)carbamate]
IC50 [1]: < 100 nM
IC50 [2]: < 100 nM
IC50 [3]: < 100 nM
IC50 [4]: < 100 nM

SMILES: CS(=O)(=O)n1c(N)nc2ccc(Oc3ccc(NC(=O)Nc4cc(C(F)(F)F)ccc4F)cc3)cc21 [Example 23]
IC50 [1]: < 100 nM
IC50 [2]: < 100 nM
IC50 [3]: 100 to 1000 nM

SMILES: CC(=O)Nc1nc2cc(Oc3ccc(NC(=O)Nc4cc(C(F)(F)F)ccc4F)nc3)ccc2[nH]1 [Example 36, N-(5-(2-((2-fluoro-5-(trifluoromethyl)phenyl)aminocarbonylamino)-5-pyridyloxy)-1H-benzimidazol-2-yl)acetamide dihydrochloride]
IC50 [1]: < 100 nM
IC50 [2]: < 100 nM
VEGF-C [3]: −

SMILES: COC(=O)Nc1nc2cc(Oc3ccc(NC(=O)Nc4cccc(C(C)(C)C)c4)cc3)ccc2[nH]1 [Example 21, Methyl N-(5-(4-((3-t-butylphenyl)aminocarbonylamino)phenoxy)-1H-benzimidazol-2-yl)carbamate]
IC50 [1]: < 100 nM
IC50 [2]: < 100 nM
VEGF-C [3]: −

SMILES: O=C(O)CCC(=O)Nc1nc2cc(Oc3ccc(NC(=O)Nc4cc(C(F)(F)F)ccc4F)cc3)ccc2[nH]1 [Example 32, 3-(N-(5-(4-((2-Fluoro-5-(trifluoromethyl)phenyl)aminocarbonylamino)phenoxy)-1H-benzimidazol-2-yl)carbamoyl)propionic acid]
IC50 [1]: < 100 nM
IC50 [2]: 100 to 1000 nM
IC50 [3]: 1000 to 10000 nM

SMILES: CCc1cccc(NC(=O)Nc2ccc(Oc3ccc4[nH]c(NC(=O)OC)nc4c3)cc2)c1 [Example 11, Methyl N-(5-(4-((3-ethylphenyl)aminocarbonylamino)phenoxy)-1H-benzimidazol-2-yl)carbamate]
IC50 [1]: < 100 nM
IC50 [2]: 100 to 1000 nM
VEGF-C [3]: −

Continued, in another order:

IC50 [1]: < 100 nM
IC50 [2]: < 100 nM
IC50 [4]: < 100 nM
SMILES: COC(=O)Nc1nc2cc(Sc3ccc(NC(=O)Nc4cc(C(F)(F)F)ccc4Cl)cc3)ccc2[nH]1.Cl [Example 51, Methyl N-(5-(4-((2-chloro-5-(trifluoromethyl)phenyl)aminocarbonylamino)phenylthio)-1H-benzimidazol-2-yl)carbamate hydrochloride]
VEGF-C [3]: −

IC50 [1]: < 100 nM
IC50 [2]: < 100 nM
IC50 [4]: < 100 nM
SMILES: NCC(=O)Nc1nc2cc(Oc3ccc(NC(=O)Nc4cc(C(F)(F)F)ccc4F)cc3)ccc2[nH]1 [Example 30, N-(5-(4-((2-Fluoro-5-(trifluoromethyl)phenyl)aminocarbonylamino)phenoxy)-1H-benzimidazol-2-yl)-2-aminoacetamide dihydrochloride]
IC50 [3]: 100 to 1000 nM

IC50 [1]: < 100 nM
IC50 [2]: < 100 nM
IC50 [4]: < 100 nM
SMILES: CC(C)(C)OC(=O)Nc1nc2cc(Oc3ccc(NC(=O)Nc4cc(C(F)(F)F)ccc4F)cc3)ccc2[nH]1 [Example 18, t-Butyl N-(5-(4-((2-fluoro-5-(trifluoromethyl)phenyl)aminocarbonylamino)phenoxy)-1H-benzimidazol-2-yl)carbamate]
IC50 [3]: < 100 nM

IC50 [1]: < 100 nM
IC50 [2]: 100 to 1000 nM
IC50 [4]: < 100 nM
SMILES: COC(=O)Nc1nc2ccc(Oc3ccc(NC(=O)Nc4cc(C(F)(F)F)ccc4F)cc3)cc2n1CCN(C)C [Example 70, Methyl N-(6-(4-((2-fluoro-5-(trifluoromethyl)phenyl)aminocarbonylamino)phenoxy)-1-(2-(dimethylamino)ethyl)-1H-benzimidazol-2-yl)carbamate]
IC50 [3]: 1000 to 10000 nM

IC50 [1]: < 100 nM
IC50 [2]: < 100 nM
SMILES: COCCOCC(=O)Nc1nc2ccc(Oc3ccc(NC(=O)Nc4cc(C(F)(F)F)ccc4F)cc3)cc2[nH]1 [Example 34]
VEGF-C [3]: −

IC50 [1]: < 100 nM
IC50 [2]: < 100 nM
SMILES: COC(=O)Nc1nc2ccc(Oc3ccc(NC(=O)Nc4cc(C(F)(F)F)ccc4Cl)cc3)cc2s1 [Example 76, Methyl N-(6-(4-((2-chloro-5-(trifluoromethyl)phenyl)aminocarbonylamino)phenoxy)benzthiazol-2-yl)carbamate]
VEGF-C [3]: −
